Patent US8889878B2, “Haloalky-substituted amides as insecticides and acaricides” (Bayer CropScience AG, priority 2009, dated 2014)

Assay: logP by HPLC on reverse-phase column (EEC Directive 79/831 Annex V.A8)
Format: physicochemical
Details: for chromatographic logP: reverse-phase C18 HPLC column, pH 2.7, HPLC
Method: The logP values reported in the above Tables and Preparation Examples were determined according to EEC Directive 79/831 Annex V.A8 by HPLC (High Performance Liquid Chromatography) on a reverse-phase column (C18). Temperature 43° C.

[1] = HPLC, C18 reverse phase, 43° C., acidic range pH 2.7, calibration with alkan-2-ones
[2] = C18 reverse phase, 43° C., acidic range pH 2.7, calibration with alkan-2-ones

chromatographic logP [2] | Compound | logP (HPLC-MS) | further results
– | COC(=O)C(C)NC(=O)c1ccc(C=CC(=O)NC(c2cccc(C(F)(F)F)c2)C(F)(F)F)cc1Cl (mixture of isomers) [Ia-191] | HPLC-MS: logP = 3.29; mass | –
– | CCC(C)NC(=O)c1ccc(C=CC(=O)NC(c2cccc(C(F)(F)F)c2)C(F)(F)F)cc1Cl (mixture of isomers) [Ia-192] | HPLC-MS: logP = 3.71; mass | –
– | O=C(C=Cc1ccc(C(=O)NCC=CCl)c(Cl)c1)NC(c1cccc(C(F)(F)F)c1)C(F)(F)F (mixture of isomers) [Ia-193] | HPLC-MS: logP = 3.58; mass | –
3.17 | ON=C(c1cc(F)cc(C(F)(F)F)c1)C(F)(F)F (racemic) [2,2,2-Trifluoro-1-[3-fluoro-5-(trifluoromethyl)phenyl]ethanone oxime] | – | logP [1]: 3.21
– | Cn1nccc1NC(=O)c1ccc(/C=C/C(=O)NC(c2cccc(C(F)(F)F)c2)C(F)(F)F)cc1Cl (racemic) [Ia-188] | HPLC-MS: logP = 2.73; mass | –
– | Cn1nccc1CNC(=O)c1ccc(/C=C/C(=O)NC(c2cccc(C(F)(F)F)c2)C(F)(F)F)cc1Cl (racemic) [Ia-189] | HPLC-MS: logP = 2.93; mass | –
– | O=C(/C=C/c1ccc(C(=O)Nc2ncc(Cl)cn2)c(Cl)c1)NC(c1cccc(C(F)(F)F)c1)C(F)(F)F (racemic) [Ia-199] | HPLC-MS: logP = 3.47; mass | –
– | N#Cc1cc(/C=C/C(=O)NC(c2cccc(C(F)(F)F)c2)C(F)(F)F)ccc1-n1cccn1 (racemic) [Ia-201] | HPLC-MS: logP = 3.5; mass | –
– | N#Cc1cnn(-c2ccc(/C=C/C(=O)NC(c3ccc(F)c(Cl)c3)C(F)(F)F)cc2Cl)c1 (racemic) [Ia-202] | HPLC-MS: logP = 3.77; mass | –
– | O=C(/C=C/c1ccc(C(=O)Nc2cnccn2)c(Cl)c1)NC(c1cccc(C(F)(F)F)c1)C(F)(F)F (racemic) [Ia-216] | HPLC-MS: logP = 3.31; mass | –
– | O=C(NC1CC1)c1cc2cc(C(=O)NC(c3cccc(C(F)(F)F)c3)C(F)(F)F)n(Cc3ccccc3)c2cc1Cl (racemic) [Ic-28] | – | logP [1]: HPLC-MS: logP = 4.25; mass
– | CNC(=O)c1cc2cc(C(=O)NC(c3cccc(C(F)(F)F)c3)C(F)(F)F)n(C)c2cc1Cl (racemic) [Ic-30] | – | logP [1]: HPLC-MS: logP = 3.2; mass (m/z):
– | C#CC(C)NC(=O)c1cc2cc(C(=O)NC(c3cccc(C(F)(F)F)c3)C(F)(F)F)n(C)c2cc1Cl (racemic) [Ic-31] | – | logP [1]: HPLC-MS: logP = 3.73; mass
– | Cn1c(C(=O)NC(c2cccc(C(F)(F)F)c2)C(F)(F)F)cc2cc(C(=O)NC3CSC3)c(Cl)cc21 (racemic) [Ic-33] | – | logP [1]: HPLC-MS: logP = 3.82; mass
2.94 | NC(c1cc(Cl)cc(C(F)(F)F)c1)C(F)(F)F (stereo not shown) [1-[3-Chloro-5-(trifluoromethyl)phenyl]-2,2,2-trifluoroethanamine] | – | –
0.92 | NCc1ccc(Br)cc1C(F)(F)F [1-[4-Bromo-2-(trifluoromethyl)phenyl]methanamine] | – | –
3.17 | NC(c1cc(Cl)c(Cl)c(Cl)c1)C(F)(F)F (stereo not shown) [2,2,2-Trifluoro-1-(3,4,5-trichlorophenyl)ethanamine] | – | –
2.54 | O=C(c1cc(F)cc(C(F)(F)F)c1)C(F)(F)F [2,2,2-Trifluoro-1-[3-fluoro-5-(trifluoromethyl)phenyl]ethanone] | – | –
3.61 | CC(F)(F)C(=O)c1cccc(C(F)(F)F)c1 [2,2-Difluoro-1-[3-(trifluoromethyl)phenyl]propan-1-one] | – | –
3.1 | O=C(O)c1ccc2cc(C(=O)NC(c3cccc(C(F)(F)F)c3)C(F)(F)F)oc2c1 (stereo not shown) [2-({2,2,2-Trifluoro-1-[3-(trifluoromethyl)phenyl]ethyl}carbamoyl)-1-benzofuran-6-carboxylic acid] | – | –
3.15 | O=C(/C=C/c1ccc(C(=O)O)c(Br)c1)NC(c1cccc(C(F)(F)F)c1)C(F)(F)F (stereo not shown) [2-Bromo-4-[(1E)-3-oxo-3-({2,2,2-trifluoro-1-[3-(trifluoromethyl)phenyl]ethyl}amino)prop-1-en-1-yl]benzoic acid] | – | –
